The values that follow come from patent US20260374773A1, “MULTI-CYCLIC IRAK AND FLT3 INHIBITING COMPOUNDS AND USES THEREOF” (CHILDREN'S HOSPITAL MEDICAL CENTER, priority 2022, published 2026).

Molecules are shown by their SMILES. Bounds are passed on as bounds.

The first assay addresses T1, FLT3 D835V (Homo sapiens, UniProt P36888, D835V).
T1 sequence (P36888 27-993 D835V): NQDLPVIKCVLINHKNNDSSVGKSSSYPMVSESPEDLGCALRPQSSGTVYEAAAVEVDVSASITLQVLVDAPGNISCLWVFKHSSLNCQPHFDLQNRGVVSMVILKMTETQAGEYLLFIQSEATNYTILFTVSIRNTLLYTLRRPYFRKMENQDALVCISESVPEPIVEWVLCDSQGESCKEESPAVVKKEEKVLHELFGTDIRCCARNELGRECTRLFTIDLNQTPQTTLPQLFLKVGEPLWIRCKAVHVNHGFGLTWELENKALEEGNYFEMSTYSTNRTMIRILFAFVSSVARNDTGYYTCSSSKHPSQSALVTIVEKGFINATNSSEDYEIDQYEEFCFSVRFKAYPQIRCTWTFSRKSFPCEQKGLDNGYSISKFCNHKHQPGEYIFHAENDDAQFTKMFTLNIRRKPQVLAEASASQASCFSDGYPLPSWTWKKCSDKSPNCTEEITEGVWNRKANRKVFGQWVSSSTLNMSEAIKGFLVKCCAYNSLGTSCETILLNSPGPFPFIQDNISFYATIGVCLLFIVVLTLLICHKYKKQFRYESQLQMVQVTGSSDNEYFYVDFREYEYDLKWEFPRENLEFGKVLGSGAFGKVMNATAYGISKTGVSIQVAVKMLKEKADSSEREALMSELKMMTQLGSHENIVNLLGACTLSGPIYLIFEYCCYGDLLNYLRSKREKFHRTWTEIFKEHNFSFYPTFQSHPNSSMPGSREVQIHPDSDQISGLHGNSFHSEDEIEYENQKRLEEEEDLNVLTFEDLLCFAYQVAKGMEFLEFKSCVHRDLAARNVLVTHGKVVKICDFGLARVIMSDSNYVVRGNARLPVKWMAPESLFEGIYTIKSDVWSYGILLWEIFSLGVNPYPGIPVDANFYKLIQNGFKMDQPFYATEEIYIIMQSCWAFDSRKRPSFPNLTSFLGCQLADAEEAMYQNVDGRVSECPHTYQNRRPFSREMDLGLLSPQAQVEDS
Kind of assay: DiscoverX KINOMEscan active site-directed competition binding, FLT3 D835V. The following applies: Table 12; no ATP.
From the text: (§1) Kinase binding data were obtained for various exemplary compounds prepared according to Examples 1-8 using the DiscoverX KINOMEscan® active site-directed competition binding site-directed assay protocol described below. […] As a result, the data report thermodynamic interaction affinities (Kd values), rather than IC50 values that are dependent on ATP concentrations. The assay uses a DNA-tagged version of the protein kinase, and an immobilized ligand bound to a solid support. Compounds that directly or indirectly prevent kinase binding to the immobilized ligand reduce the amount of kinase captured on the solid support, which is detected using an ultra-sensitive qPCR method. Affinity constants reported from the assay have been reported to be independent of the immobilized ligand used that is coupled to the solid support (See supplemental information in Fabian, M. A. et. al., (2005) Nat. Biotechnol. 23, 329-336; Wodicka, L. M. et. al., (2010) Chem. Biol. 17, 1241-1249.)
Kinase-tagged T7 phage strains were prepared in an E. coli host derived from the BL21 strain. E. coli were grown to log-phase and infected with T7 phage and incubated with shaking at 32 °C until lysis. The lysates were centrifuged and filtered to remove cell debris. The remaining kinases were produced in HEK-293 cells and subsequently tagged with DNA for qPCR detection. Streptavidin-coated magnetic beads were treated with biotinylated small molecule ligands for 30 minutes at room temperature to generate affinity resins for kinase assays. The liganded beads were blocked with excess biotin and washed with blocking buffer (SeaBlock (Pierce), 1% BSA, 0.05% Tween 20, 1 mM DTT) to remove unbound ligand and to reduce non-specific binding. […] Test compounds were prepared as 111x stocks in 100% DMSO. Kds were determined using an 11-point 3-fold compound dilution series with three DMSO control points. All compounds for Kd measurements are distributed by acoustic transfer (non-contact dispensing) in 100% DMSO. The compounds were then diluted directly into the assays such that the final concentration of DMSO was 0.9%. All reactions were performed in polypropylene 384-well plates. Each was a final volume of 0.02 mL. The assay plates were incubated at room temperature with shaking for 1 hour and the affinity beads were washed with wash buffer (1×PBS, 0.05% Tween 20). The beads were then re-suspended in elution buffer (1×PBS, 0.05% Tween 20, 0.5 μM nonbiotinylated affinity ligand) and incubated at room temperature with shaking for 30 minutes. The kinase concentration in the eluates was measured by qPCR. Binding constants (Kds) were calculated with a standard dose-response curve using the Hill equation. The Hill Slope was set to −1. Curves were fitted using a non-linear least square fit with the Levenberg-Marquardt algorithm.
as §1, with “9-12” for “1-8”
Kinase-tagged T7 phage strains were prepared in an E. coli host derived from the BL21 strain. […]
Consider `COc1cn2ncc(-c3nc(N[C@H]4CNCC[C@@H]4F)c(C#N)cc3F)c2nc1C1CC1` [Compound 7, 6-(5-cyclopropyl-6-methoxypyrazolo[1,5-a]pyrimidin-3-yl)-5-fluoro-2-(((3S,4S)-4-fluoropiperidin-3-yl)amino)nicotinonitrile], for which the dissociation constant Kd – broadly, the constant that tells how readily two partners part at equilibrium – was below 0.17 nM.
Regarding `COc1cn2ncc(-c3nc(N[C@H]4CNCC[C@@H]4F)c(C#N)cc3F)c2nc1C(C)(C)O` [Compound 10, 5-fluoro-2-(((3S,4S)-4-fluoropiperidin-3-yl)amino)-6-(5-(2-hydroxypropan-2-yl)-6-methoxypyrazolo[1,5-a]pyrimidin-3-yl)nicotinonitrile], the equilibrium dissociation constant (Kd) was below 0.17 nM.
On the same count and under the same terms, then `COc1cn2ncc(-c3nc(N[C@H]4CNCC[C@@H]4F)c(F)cc3F)c2nc1C(C)(C)O` [Compound 13, 2-(3-(3,5-difluoro-6-(((3S,4S)-4-fluoropiperidin-3-yl)amino)pyridin-2-yl)-6-methoxypyrazolo[1,5-a]pyrimidin-5-yl)propan-2-ol], with below 0.17 nM.

The same assay, now with this note: Table 18; no ATP.
For the molecule `COc1cn2ncc(-c3nc(N[C@H]4CNCC[C@@H]4F)ncc3F)c2nc1C(C)(C)O` [Compound 6a, 2-(3-(5-fluoro-2-(((3S,4S)-4-fluoropiperidin-3-yl)amino)pyrimidin-4-yl)-6-methoxypyrazolo[1,5-a]pyrimidin-5-yl)propan-2-ol], the dissociation constant Kd was below 0.17 nM.
`COc1cn2ncc(-c3cncc(N[C@H]4CNCC[C@@H]4F)n3)c2nc1C1CC1` [Compound 12a, 6-(5-cyclopropyl-6-methoxypyrazolo[1,5-a]pyrimidin-3-yl)-N-((3S,4S)-4-fluoropiperidin-3-yl)pyrazin-2-amine] had a Kd below 0.17 nM.
Regarding `COc1cn2ncc(-c3nc(N[C@@H]4CCCNC4)ncc3F)c2nc1C1CC1` [Compound 14a, (R)-4-(5-cyclopropyl-6-methoxypyrazolo[1,5-a]pyrimidin-3-yl)-5-fluoro-N-(piperidin-3-yl)pyrimidin-2-amine], the Kd is below 0.17 nM.
For `COc1cn2ncc(-c3nc(N[C@H]4CNCC[C@@H]4F)ncc3F)c2nc1C1CC1` [Compound 15a, 4-(5-cyclopropyl-6-methoxypyrazolo[1,5-a]pyrimidin-3-yl)-5-fluoro-N-((3S,4S)-4-fluoropiperidin-3-yl)pyrimidin-2-amine], the equilibrium dissociation constant (Kd) was determined as 0.28 nM. In other words, the sub-nanomolar range.
`COc1cn2ncc(-c3ccnc(N[C@H]4CNCC[C@@H]4F)n3)c2nc1C1CC1` [Compound 7a, 4-(5-cyclopropyl-6-methoxypyrazolo[1,5-a]pyrimidin-3-yl)-N-((3S,4S)-4-fluoropiperidin-3-yl)pyrimidin-2-amine] gave a Kd of 0.48 nM. This Kd lies about 1.7-fold higher than the previous one.
